Reference: PubChem BioAssay (NCI)
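96-well plates; 48 h exposure; 5 concentrations. Endpoints by linear interpolation between flanking doses. Not reached: highest tested concentration assigned. TGI marks complete inhibition of growth.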

What was measured:
Experiment in all cases: growth of human tumour cells (NCI), 48 h
786-0 renal = test system: 786-0 renal
A549 NSCLC = test system: A549 NSCLC
ACHN renal = test system: ACHN renal
BT-549 breast = test system: BT-549 breast
CAKI-1 renal = test system: CAKI-1 renal
CCRF-CEM leukemia = test system: CCRF-CEM leukemia
COLO 205 colon = test system: COLO 205 colon
DU-145 prostate = test system: DU-145 prostate
EKVX NSCLC = test system: EKVX NSCLC
HCC-2998 colon = test system: HCC-2998 colon
HCT-116 colon = test system: HCT-116 colon
HCT-15 colon = test system: HCT-15 colon
HL-60(TB) leukemia = test system: HL-60(TB) leukemia
HOP-62 NSCLC = test system: HOP-62 NSCLC
HS 578T breast = test system: HS 578T breast
HT29 colon = test system: HT29 colon
IGROV1 ovarian = test system: IGROV1 ovarian
K-562 leukemia = test system: K-562 leukemia
KM12 colon = test system: KM12 colon
LOX IMVI melanoma = test system: LOX IMVI melanoma
M14 melanoma = test system: M14 melanoma
MALME-3M melanoma = test system: MALME-3M melanoma
MCF7 breast = test system: MCF7 breast
MDA-MB-231 breast = test system: MDA-MB-231 breast
MDA-MB-435 = test system: MDA-MB-435
MDA-N = test system: MDA-N
MOLT-4 leukemia = test system: MOLT-4 leukemia
NCI-H226 lung = test system: NCI-H226 lung
NCI-H23 lung = test system: NCI-H23 lung
NCI-H460 lung = test system: NCI-H460 lung
NCI/ADR-RES ovarian = test system: NCI/ADR-RES ovarian
OVCAR-3 ovarian = test system: OVCAR-3 ovarian
OVCAR-4 ovarian = test system: OVCAR-4 ovarian
OVCAR-5 ovarian = test system: OVCAR-5 ovarian
OVCAR-8 ovarian = test system: OVCAR-8 ovarian
PC-3 prostate = test system: PC-3 prostate
RPMI-8226 leukemia = test system: RPMI-8226 leukemia
RXF 393 renal = test system: RXF 393 renal
SF-268 CNS = test system: SF-268 CNS
SF-295 CNS = test system: SF-295 CNS
SK-MEL-2 melanoma = test system: SK-MEL-2 melanoma
SK-MEL-28 melanoma = test system: SK-MEL-28 melanoma
SK-MEL-5 melanoma = test system: SK-MEL-5 melanoma
SK-OV-3 ovarian = test system: SK-OV-3 ovarian
SN12C renal = test system: SN12C renal
SNB-19 CNS = test system: SNB-19 CNS
SNB-75 CNS = test system: SNB-75 CNS
SR leukemia = test system: SR leukemia
SW-620 colon = test system: SW-620 colon
T-47D breast = test system: T-47D breast
TK-10 renal = test system: TK-10 renal
U251 CNS = test system: U251 CNS
UACC-257 melanoma = test system: UACC-257 melanoma
UACC-62 melanoma = test system: UACC-62 melanoma
UO-31 renal = test system: UO-31 renal
A498 renal = test system: A498 renal
HOP-92 NSCLC = test system: HOP-92 NSCLC
NCI-H522 lung = test system: NCI-H522 lung
SF-539 CNS = test system: SF-539 CNS

CC1(c2ccccc2)CCN(C2CC2)CO1 (stereo unspecified)
TGI (786-0 renal): 29.9 µM | TGI (A549 NSCLC): > 100 µM | TGI (ACHN renal): 31.7 µM | TGI (BT-549 breast): 32.3 µM | TGI (CAKI-1 renal): 36.5 µM | TGI (CCRF-CEM leukemia): > 100 µM | TGI (COLO 205 colon): 39.8 µM | TGI (DU-145 prostate): > 100 µM | TGI (EKVX NSCLC): 41.4 µM | TGI (HCC-2998 colon): 30.8 µM | TGI (HCT-116 colon): 40.9 µM | TGI (HCT-15 colon): 30.1 µM | TGI (HL-60(TB) leukemia): > 100 µM | TGI (HOP-62 NSCLC): > 100 µM | TGI (HS 578T breast): 44 µM | TGI (HT29 colon): 35.7 µM | TGI (IGROV1 ovarian): 40.2 µM | TGI (K-562 leukemia): > 100 µM | TGI (KM12 colon): 30.4 µM | TGI (LOX IMVI melanoma): 39.9 µM | TGI (M14 melanoma): 31 µM | TGI (MALME-3M melanoma): 34.4 µM | TGI (MCF7 breast): 32 µM | TGI (MDA-MB-231 breast): 38.4 µM | TGI (MDA-MB-435): > 100 µM | TGI (MDA-N): 31 µM | TGI (MOLT-4 leukemia): 43.5 µM | TGI (NCI-H226 lung): > 100 µM | TGI (NCI-H23 lung): 85.2 µM | TGI (NCI-H460 lung): 28.1 µM | TGI (NCI/ADR-RES ovarian): 46.6 µM | TGI (OVCAR-3 ovarian): 31.7 µM | TGI (OVCAR-4 ovarian): 33.9 µM | TGI (OVCAR-5 ovarian): 33.3 µM | TGI (OVCAR-8 ovarian): > 100 µM | TGI (PC-3 prostate): > 100 µM | TGI (RPMI-8226 leukemia): > 100 µM | TGI (RXF 393 renal): 69.3 µM | TGI (SF-268 CNS): 35.4 µM | TGI (SF-295 CNS): > 100 µM | TGI (SK-MEL-2 melanoma): > 100 µM | TGI (SK-MEL-28 melanoma): 37.5 µM | TGI (SK-MEL-5 melanoma): > 100 µM | TGI (SK-OV-3 ovarian): > 100 µM | TGI (SN12C renal): 36.6 µM | TGI (SNB-19 CNS): > 100 µM | TGI (SNB-75 CNS): > 100 µM | TGI (SR leukemia): 65.5 µM | TGI (SW-620 colon): 36.2 µM | TGI (T-47D breast): 45.1 µM | TGI (TK-10 renal): 26.7 µM | TGI (U251 CNS): > 100 µM | TGI (UACC-257 melanoma): 47.8 µM | TGI (UACC-62 melanoma): 32 µM | TGI (UO-31 renal): 35.8 µM

COC(=O)Cc1c(-c2[nH]c3ccccc3c2CC(=O)OC)[nH]c2ccccc12
TGI (786-0 renal): > 100 µM | TGI (A498 renal): > 100 µM | TGI (A549 NSCLC): > 100 µM | TGI (ACHN renal): > 100 µM | TGI (BT-549 breast): > 100 µM | TGI (CAKI-1 renal): > 100 µM | TGI (CCRF-CEM leukemia): > 100 µM | TGI (COLO 205 colon): > 100 µM | TGI (DU-145 prostate): > 100 µM | TGI (EKVX NSCLC): > 100 µM | TGI (HCC-2998 colon): > 100 µM | TGI (HCT-116 colon): > 100 µM | TGI (HCT-15 colon): > 100 µM | TGI (HOP-62 NSCLC): > 100 µM | TGI (HOP-92 NSCLC): > 100 µM | TGI (HS 578T breast): > 100 µM | TGI (HT29 colon): > 100 µM | TGI (IGROV1 ovarian): > 100 µM | TGI (K-562 leukemia): > 100 µM | TGI (KM12 colon): > 100 µM | TGI (LOX IMVI melanoma): > 100 µM | TGI (M14 melanoma): > 100 µM | TGI (MALME-3M melanoma): > 100 µM | TGI (MCF7 breast): > 100 µM | TGI (MDA-MB-231 breast): > 100 µM | TGI (MDA-MB-435): > 100 µM | TGI (MDA-N): > 100 µM | TGI (MOLT-4 leukemia): > 100 µM | TGI (NCI-H226 lung): > 100 µM | TGI (NCI-H23 lung): > 100 µM | TGI (NCI-H460 lung): > 100 µM | TGI (NCI-H522 lung): > 100 µM | TGI (NCI/ADR-RES ovarian): > 100 µM | TGI (OVCAR-3 ovarian): > 41.2 µM | TGI (OVCAR-4 ovarian): > 100 µM | TGI (OVCAR-5 ovarian): > 100 µM | TGI (OVCAR-8 ovarian): > 100 µM | TGI (PC-3 prostate): > 100 µM | TGI (RPMI-8226 leukemia): > 100 µM | TGI (RXF 393 renal): > 100 µM | TGI (SF-268 CNS): > 100 µM | TGI (SF-295 CNS): > 100 µM | TGI (SF-539 CNS): > 100 µM | TGI (SK-MEL-2 melanoma): > 100 µM | TGI (SK-MEL-28 melanoma): > 100 µM | TGI (SK-MEL-5 melanoma): > 100 µM | TGI (SK-OV-3 ovarian): > 100 µM | TGI (SN12C renal): > 100 µM | TGI (SNB-19 CNS): > 100 µM | TGI (SNB-75 CNS): > 100 µM | TGI (SR leukemia): > 100 µM | TGI (SW-620 colon): > 100 µM | TGI (T-47D breast): > 100 µM | TGI (TK-10 renal): > 100 µM | TGI (U251 CNS): > 100 µM | TGI (UACC-257 melanoma): > 100 µM | TGI (UACC-62 melanoma): > 100 µM | TGI (UO-31 renal): > 100 µM

Nc1nc(N)c2ncn(-c3ccc(Br)cc3)c2n1
TGI (786-0 renal): > 100 µM | TGI (A498 renal): > 61.9 µM | TGI (A549 NSCLC): > 100 µM | TGI (ACHN renal): > 52.8 µM | TGI (BT-549 breast): > 100 µM | TGI (CAKI-1 renal): > 45.3 µM | TGI (CCRF-CEM leukemia): 34.7 µM | TGI (COLO 205 colon): > 100 µM | TGI (DU-145 prostate): > 100 µM | TGI (EKVX NSCLC): 88.4 µM | TGI (HCC-2998 colon): > 100 µM | TGI (HCT-116 colon): > 100 µM | TGI (HCT-15 colon): > 100 µM | TGI (HOP-62 NSCLC): > 59.8 µM | TGI (HOP-92 NSCLC): > 38.1 µM | TGI (HS 578T breast): 25.3 µM | TGI (HT29 colon): > 45.6 µM | TGI (IGROV1 ovarian): 41.5 µM | TGI (K-562 leukemia): 38.3 µM | TGI (KM12 colon): > 45.7 µM | TGI (LOX IMVI melanoma): > 100 µM | TGI (M14 melanoma): > 69.2 µM | TGI (MALME-3M melanoma): > 44.9 µM | TGI (MCF7 breast): > 57.1 µM | TGI (MDA-MB-231 breast): > 86.1 µM | TGI (MDA-MB-435): > 100 µM | TGI (MDA-N): > 100 µM | TGI (MOLT-4 leukemia): 37.3 µM | TGI (NCI-H226 lung): > 100 µM | TGI (NCI-H23 lung): > 93.2 µM | TGI (NCI-H460 lung): > 100 µM | TGI (NCI-H522 lung): > 42.5 µM | TGI (NCI/ADR-RES ovarian): 50.8 µM | TGI (OVCAR-3 ovarian): > 64 µM | TGI (OVCAR-4 ovarian): > 100 µM | TGI (OVCAR-5 ovarian): > 73.1 µM | TGI (OVCAR-8 ovarian): > 55.7 µM | TGI (PC-3 prostate): > 65 µM | TGI (RPMI-8226 leukemia): > 56.1 µM | TGI (RXF 393 renal): > 78.6 µM | TGI (SF-268 CNS): > 63.8 µM | TGI (SF-295 CNS): > 100 µM | TGI (SF-539 CNS): 46.5 µM | TGI (SK-MEL-2 melanoma): 41.5 µM | TGI (SK-MEL-28 melanoma): > 100 µM | TGI (SK-MEL-5 melanoma): > 100 µM | TGI (SK-OV-3 ovarian): 73.9 µM | TGI (SN12C renal): 75.6 µM | TGI (SNB-19 CNS): > 100 µM | TGI (SNB-75 CNS): 31.2 µM | TGI (SR leukemia): 3.2 µM | TGI (SW-620 colon): > 100 µM | TGI (T-47D breast): > 100 µM | TGI (TK-10 renal): > 100 µM | TGI (U251 CNS): > 100 µM | TGI (UACC-257 melanoma): > 100 µM | TGI (UACC-62 melanoma): > 66.8 µM | TGI (UO-31 renal): > 50.6 µM
